Experimental data published in ChEMBL document CHEMBL5346903, “Discovery of novel and bioavailable histone deacetylases and cyclin-dependent kinases dual inhibitor to impair the stemness of leukemia cells” (Eur J Med Chem, 2023).
Each block holds one compound with its values, some of them ahead of it.

Legend:
[1] = tested on: HL-60; assay: Induction of differentiation in human HL-60 cells assessed as increase in CD11b positive cells at 5 uM incubated for 24 hrs by FITC staining based flow cytometry (reference value: 1.12 %); type: functional
[2] = tested on: HL-60; assay: Induction of apoptosis in human HL-60 cells assessed as necrotic cells at 1.2 uM incubated for 48 hrs by annexin V-FITC/PI satining based flow cytometry (reference value: 0.04 %); type: functional
[3] = tested on: U-937; assay: Induction of differentiation in human U-937 cells assessed as increase in CD11b positive cells at 2.5 uM incubated for 48 hrs by FITC staining based flow cytometry (reference value: […] %); type: functional
[4] = tested on: U-937; assay: Induction of apoptosis in human U-937 cells assessed as late apoptotic cells at 0.6 uM incubated for 48 hrs by annexin V-FITC/PI satining based flow cytometry (reference value: 4.23 %); type: functional
[5] = tested on: HL-60; assay: Induction of apoptosis in human HL-60 cells assessed as viable cells at 1.2 uM incubated for 48 hrs by annexin V-FITC/PI satining based flow cytometry (reference value: 94.7 %); type: functional; details: read-out: Activity
[6] = tested on: HL-60; assay: Induction of apoptosis in human HL-60 cells assessed as viable cells at 0.6 uM incubated for 48 hrs by annexin V-FITC/PI satining based flow cytometry (reference value: 94.7 %); type: functional; details: read-out: Activity
[7] = tested on: U-937; assay: Induction of apoptosis in human U-937 cells assessed as viable cells at 5 uM incubated for 48 hrs by annexin V-FITC/PI satining based flow cytometry (reference value: 93.7 %); type: functional; details: read-out: Activity
[8] = tested on: U-937; assay: Induction of differentiation in human U-937 cells assessed as increase in CD11b positive cells at 1.2 uM incubated for 48 hrs by FITC staining based flow cytometry (reference value: […] %); type: functional
[9] = tested on: U-937; assay: Induction of apoptosis in human U-937 cells assessed as late apoptotic cells at 2.5 uM incubated for 48 hrs by annexin V-FITC/PI satining based flow cytometry (reference value: 4.23 %); type: functional
[10] = tested on: HL-60; assay: Induction of apoptosis in human HL-60 cells assessed as late apoptotic cells at 2.5 uM incubated for 48 hrs by annexin V-FITC/PI satining based flow cytometry (reference value: 2.83 %); type: functional
[11] = tested on: HL-60; assay: Induction of apoptosis in human HL-60 cells assessed as viable cells at 1 uM incubated for 48 hrs by annexin V-FITC/PI satining based flow cytometry (reference value: 97.4 %); type: functional; details: read-out: Activity
[12] = AUC in Sprague-Dawley rat at 25 mg/kg, po measured upto 8 hrs by LC/MS-MS analysis; type: ADME, organism-based; design: time < 8 hrs, dose 25 mg/kg, route po; details: in vivo
[13] = biological target: CDK6/cyclin D1 (Homo sapiens) (UniProt P24385+Q00534); assay: Inhibition of CDK6/cyclinD1 (unknown origin) at 100 nM preincubated for 20 mins followed by [gamma-33P]ATP addition measured after 120 mins in presence of ATP by Hot-SpotSM kinase assay relative to control; type: protein-complex assay; details: time 140.0 min
[14] = tested on: U-937; assay: Induction of apoptosis in human U-937 cells assessed as late apoptotic cells at 1 uM incubated for 48 hrs by annexin V-FITC/PI satining based flow cytometry (reference value: 7.10 %); type: functional
[15] = tested on: HL-60; assay: Induction of apoptosis in human HL-60 cells assessed as early apoptotic cells at 1 uM incubated for 48 hrs by annexin V-FITC/PI satining based flow cytometry (reference value: 1.24 %); type: functional
[16] = Cytotoxicity against human Kasumi 1 cells assessed as CD34positive CD38negative leukemic stem cell-like cells sub-population at 2 uM incubated for 24 hrs by APC/FITC satining based flow cytometry (reference value: 96.8 %); type: functional
[17] = Half life in Sprague-Dawley rat at 25 mg/kg, po measured upto 8 hrs by LC/MS-MS analysis; type: ADME, organism-based; details: in vivo
[18] = tested on: U-937; assay: Induction of apoptosis in human U-937 cells assessed as necrotic cells at 2 uM incubated for 48 hrs by annexin V-FITC/PI satining based flow cytometry (reference value: 1.96 %); type: functional
[19] = biological target: CDK4/Cyclin D3 (Homo sapiens) (UniProt P11802+P30281); assay: Inhibition of CDK4/cyclinD3 (unknown origin) at 100 nM preincubated for 20 mins followed by [gamma-33P]ATP addition measured after 120 mins in presence of ATP by Hot-SpotSM kinase assay relative to control; type: protein-complex assay; details: time 140.0 min
[20] = Cytotoxicity against human Kasumi 1 cells assessed as CD34positive CD38negative leukemic stem cell-like cells sub-population at 1 uM incubated for 24 hrs by APC/FITC satining based flow cytometry (reference value: 96.8 %); type: functional
[21] = tested on: HL-60; assay: Induction of apoptosis in human HL-60 cells assessed as early apoptotic cells at 0.5 uM incubated for 48 hrs by annexin V-FITC/PI satining based flow cytometry (reference value: 1.24 %); type: functional
[22] = biological target: CDK9/cyclin T1 (Homo sapiens) (UniProt O60563+P50750); assay: Inhibition of CDK9/cyclinT1 (unknown origin) at 100 nM preincubated for 20 mins followed by [gamma-33P]ATP addition measured after 120 mins in presence of ATP by Hot-SpotSM kinase assay relative to control; type: protein-complex assay; details: time 140.0 min
[23] = tested on: U-937; assay: Induction of apoptosis in human U-937 cells assessed as early apoptotic cells at 1 uM incubated for 48 hrs by annexin V-FITC/PI satining based flow cytometry (reference value: 0.945 %); type: functional
[24] = biological target: Cyclin-dependent kinase 5/CDK5 activator 1 (Homo sapiens) (UniProt Q00535+Q15078); assay: Inhibition of CDK5/p35NCK (unknown origin) at 100 nM preincubated for 20 mins followed by [gamma-33P]ATP addition measured after 120 mins in presence of ATP by Hot-SpotSM kinase assay relative to control; type: protein-complex assay; details: time 140.0 min
[25] = tested on: HL-60; assay: Induction of apoptosis in human HL-60 cells assessed as late apoptotic cells at 0.2 uM incubated for 48 hrs by annexin V-FITC/PI satining based flow cytometry (reference value: 1.33 %); type: functional
[26] = biological target: Histone deacetylase 1 (Homo sapiens, UniProt Q13547); assay: Inhibition of recombinant human HDAC1 using HDAC substrate incubated for 30 mins by fluorescence based assay
[27] = tested on: U-937; assay: Induction of apoptosis in human U-937 cells assessed as late apoptotic cells at 0.2 uM incubated for 48 hrs by annexin V-FITC/PI satining based flow cytometry (reference value: 7.10 %); type: functional
[28] = Cytotoxicity against human Kasumi 1 cells assessed as CD34positive CD38negative leukemic stem cell-like cells sub-population at 0.5 uM incubated for 24 hrs by APC/FITC satining based flow cytometry (reference value: 96.8 %); type: functional
[29] = Clearance in Sprague-Dawley rat at 5 mg/kg, iv measured upto 6 hrs by LC/MS-MS analysis; type: ADME, organism-based; details: in vivo
[30] = tested on: HL-60; assay: Induction of apoptosis in human HL-60 cells assessed as late apoptotic cells at 2 uM incubated for 48 hrs by annexin V-FITC/PI satining based flow cytometry (reference value: 1.33 %); type: functional
[31] = tested on: HL-60; assay: Induction of apoptosis in human HL-60 cells assessed as necrotic cells at 0.5 uM incubated for 48 hrs by annexin V-FITC/PI satining based flow cytometry (reference value: 0.00 %); type: functional
[32] = tested on: HL-60; assay: Downregulation of Pol-II S5 level in human HL-60 cells incubated for 6 hrs by Western blot analysis; type: functional, cell-based; details: dose <= 1000.0 nM

Chain of Cyclin-dependent kinase 5/CDK5 activator 1 (Homo sapiens) (Q00535 whole entry): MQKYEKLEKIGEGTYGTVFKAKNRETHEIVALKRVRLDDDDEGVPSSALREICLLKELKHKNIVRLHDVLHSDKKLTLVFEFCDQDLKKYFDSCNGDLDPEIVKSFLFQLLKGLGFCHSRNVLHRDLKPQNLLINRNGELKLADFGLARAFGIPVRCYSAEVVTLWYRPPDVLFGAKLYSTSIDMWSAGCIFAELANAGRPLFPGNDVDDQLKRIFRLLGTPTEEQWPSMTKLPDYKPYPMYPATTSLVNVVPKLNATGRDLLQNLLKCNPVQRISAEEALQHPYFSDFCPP
Chain of Cyclin-dependent kinase 5/CDK5 activator 1 (Homo sapiens) (Q15078 99-307 partner limits assumed): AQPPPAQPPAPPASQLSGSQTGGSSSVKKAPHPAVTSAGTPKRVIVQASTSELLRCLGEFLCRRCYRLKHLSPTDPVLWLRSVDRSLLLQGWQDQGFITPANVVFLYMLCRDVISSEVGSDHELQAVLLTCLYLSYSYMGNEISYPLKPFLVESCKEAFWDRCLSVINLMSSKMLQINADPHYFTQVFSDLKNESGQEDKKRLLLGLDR
Chain of Histone deacetylase 1 (Q13547 whole entry): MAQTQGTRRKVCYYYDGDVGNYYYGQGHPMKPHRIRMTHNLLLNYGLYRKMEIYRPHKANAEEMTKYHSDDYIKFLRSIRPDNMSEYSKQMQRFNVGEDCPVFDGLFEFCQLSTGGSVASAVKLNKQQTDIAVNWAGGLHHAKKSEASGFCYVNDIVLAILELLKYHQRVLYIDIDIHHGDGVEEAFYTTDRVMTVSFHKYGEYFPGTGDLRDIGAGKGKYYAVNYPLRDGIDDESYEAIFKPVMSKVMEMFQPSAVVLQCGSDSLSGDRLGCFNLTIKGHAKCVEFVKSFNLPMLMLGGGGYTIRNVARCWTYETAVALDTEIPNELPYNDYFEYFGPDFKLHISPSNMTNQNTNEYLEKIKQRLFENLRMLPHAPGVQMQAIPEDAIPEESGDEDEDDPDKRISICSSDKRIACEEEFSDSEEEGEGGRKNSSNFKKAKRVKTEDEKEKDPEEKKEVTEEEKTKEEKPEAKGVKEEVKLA

SMILES: Nc1cc(F)ccc1NC(=O)c1ccc(CNC(=O)/C=C/c2cccnc2)cc1 [TUCIDINOSTAT]
Activity [1]: 71.1% | Activity [2]: 0.04% | Activity [3]: 5.59% | Activity [4]: 4.81% | viability at 1.2 µM [5]: 84.7% | viability at 0.6 µM [6]: 95.1% | viability at 5 µM [7]: 72.6% | Activity [8]: 5% | Activity [9]: 9.77% | Activity [10]: 37.9%

AUC [12]: 2368 ng·h/mL | inhibition [13]: 58.2% | t1/2 [17]: 1.37 h | inhibition [19]: 72.8% | inhibition [22]: 98.3% | inhibition [24]: 90.7% | IC50 [26]: 35.7 nM | clearance [29]: 88.5 mL/min/kg
SMILES: Nc1ccccc1NC(=O)c1ccc(NC(=O)c2n[nH]cc2NC(=O)c2c(Cl)cccc2Cl)cc1
viability at 1 µM [11]: 43.5% | Activity [14]: 34.1% | Activity [15]: 17% | Activity [16]: 28.1% | Activity [18]: 3.3% | Activity [20]: 35.3% | Activity [21]: 2.42% | Activity [23]: 1.92% | Activity [25]: 1.97% | Activity [27]: 8.15% | Activity [28]: 45.4% | Activity [30]: 54.5% | Activity [31]: 0.01% | Activity [32]: Dose-Dependent Effect
